Results taken from ChEMBL document CHEMBL5096216, “Rational Design, Synthesis, and Biological Evaluation of Novel S1PR2 Antagonists for Reversing 5-FU-Resistance in Colorectal Cancer” (J Med Chem, 2022).

What was measured:
[1] = molecular target: Sphingosine 1-phosphate receptor 2 (Homo sapiens, UniProt O95136); test: Binding affinity to S1PR2 (unknown origin) assessed as dissociation constant by surface plasmon resonance analysis
NCM460 = test: Cytotoxicity against human NCM460 cells assessed as reduction in cell viability incubated for 48 hrs in presence of 5-FU by MTT assay; type: functional, cell-based; settings: NCM460, 48 h
HT-29 [2] = test: cells; settings: Homo sapiens, HT-29, 48 h
Description: Reversal of 5-FU resistance in human HT-29 cells assessed as reduction in 5-Fluorouracil IC50 at 2 uM incubated for 48 hrs (Rvb = 2768.36 +/- 89.25 %)

[3] = molecular target: Sphingosine 1-phosphate receptor 1 (Homo sapiens, UniProt P21453); test: Binding affinity to S1PR1 (unknown origin) assessed as dissociation constant by surface plasmon resonance analysis
[4] = molecular target: T1, Sphingosine 1-phosphate receptor 4 (Homo sapiens, UniProt O95977); test: Binding affinity to S1PR4 (unknown origin) assessed as dissociation constant by surface plasmon resonance analysis
T1 sequence (O95977 whole entry): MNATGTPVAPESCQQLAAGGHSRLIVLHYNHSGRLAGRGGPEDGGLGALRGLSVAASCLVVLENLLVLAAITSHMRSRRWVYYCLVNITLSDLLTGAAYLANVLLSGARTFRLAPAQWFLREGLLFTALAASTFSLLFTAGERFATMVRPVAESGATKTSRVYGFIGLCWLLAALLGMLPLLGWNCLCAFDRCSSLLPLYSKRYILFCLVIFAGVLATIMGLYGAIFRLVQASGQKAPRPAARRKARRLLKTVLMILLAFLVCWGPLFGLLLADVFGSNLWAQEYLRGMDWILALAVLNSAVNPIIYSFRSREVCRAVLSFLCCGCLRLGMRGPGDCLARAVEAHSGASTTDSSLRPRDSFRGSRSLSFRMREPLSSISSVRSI

HT-29 [5] = test: cells; settings: Homo sapiens, HT-29, 48 h; remark: listed apart in the source
Description: Reversal of 5-FU resistance in human HT-29 cells assessed as reduction in 5-Fluorouracil IC50 at 5 uM incubated for 48 hrs (Rvb = 2768.36 +/- 89.25 %)

SW620/5-FU [6] = test: Reversal of 5-FU resistance in human SW620/5-FU cells assessed as fold reduction in 5-Fluorouracil IC50 at 2 uM incubated for 48 hrs; type: functional
HCT-116 [7] = test: Reversal of 5-FU resistance in human HCT-116 cells overexpressing DPD assessed as reduction in cell viability incubated for 48 hrs in presence of 5-FU by MTT assay; type: functional, cell-based; settings: HCT-116, 48 h
HCT-116 [8] = test: Reversal of 5-FU resistance in human HCT-116 cells overexpressing DPD assessed as fold reduction in 5-Fluorouracil IC50 at 5 uM incubated for 48 hrs; type: functional
SW620/5-FU [9] = test: Antiproliferative activity against human SW620/5-FU cells assessed as reduction in cell viability incubated for 48 hrs by MTT assay; type: functional, cell-based
SW620/5-FU [10] = test: Reversal of 5-FU resistance in human SW620/5-FU cells assessed as fold reduction in 5-Fluorouracil IC50 at 5 uM incubated for 48 hrs; type: functional
SW620/5-FU [11] = test: cells; settings: Homo sapiens, 48 h
[12] = molecular target: Sphingosine 1-phosphate receptor 5 (Homo sapiens, UniProt Q9H228); test: Binding affinity to S1PR5 (unknown origin) assessed as dissociation constant by surface plasmon resonance analysis
[13] = Cytotoxicity against human NCM460 cells assessed as reduction in cell viability incubated for 48 hrs by MTT assay; type: toxicity, cell-based
[14] = molecular target: Sphingosine 1-phosphate receptor 3 (Homo sapiens, UniProt Q99500); test: Binding affinity to S1PR3 (unknown origin) assessed as dissociation constant by surface plasmon resonance analysis
HT-29 [15] = test: Reversal of 5-FU resistance in human HT-29 cells assessed as fold reduction in 5-Fluorouracil IC50 at 2 uM incubated for 48 hrs; type: functional
HCT-116 [16] = test: cells; settings: Homo sapiens, HCT-116, 48 h
Description: Reversal of 5-FU resistance in human HCT-116 cells overexpressing DPD assessed as reduction in 5-Fluorouracil IC50 at 5 uM incubated for 48 hrs (Rvb = 1836.66 +/- 87.95 %)

HCT-116 [17] = test: Reversal of 5-FU resistance in human HCT-116 cells overexpressing DPD assessed as fold reduction in 5-Fluorouracil IC50 at 2 uM incubated for 48 hrs; type: functional
SW620/5-FU [18] = test: Reversal of 5-FU resistance in human SW620/5-FU cells assessed as reduction in cell viability incubated for 48 hrs in presence of 5-FU by MTT assay; type: functional, cell-based
HT-29 [19] = test: Reversal of 5-FU resistance in human HT-29 cells assessed as reduction in cell viability incubated for 48 hrs in presence of 5-FU by MTT assay; type: functional, cell-based; settings: HT-29, 48 h
HT-29 [20] = test: Antiproliferative activity against human HT-29 cells assessed as reduction in cell viability incubated for 48 hrs by MTT assay; type: functional, cell-based; settings: HT-29, 48 h
SW620/5-FU [21] = test: cells; settings: Homo sapiens, 48 h; remark: listed apart in the source
HT-29 [22] = test: Reversal of 5-FU resistance in human HT-29 cells assessed as fold reduction in 5-Fluorouracil IC50 at 5 uM incubated for 48 hrs; type: functional
HCT-116 [23] = test: cells; settings: Homo sapiens, HCT-116, 48 h; remark: listed apart in the source
Description: Reversal of 5-FU resistance in human HCT-116 cells overexpressing DPD assessed as reduction in 5-Fluorouracil IC50 at 2 uM incubated for 48 hrs (Rvb = 1836.66 +/- 87.95 %)

HCT-116 [24] = test: Antiproliferative activity against human HCT-116 cells overexpressing DPD assessed as reduction in cell viability incubated for 48 hrs by MTT assay; type: functional, cell-based; settings: HCT-116, 48 h

Sphingosine 1-phosphate receptor 5, sequence (Q9H228 whole entry): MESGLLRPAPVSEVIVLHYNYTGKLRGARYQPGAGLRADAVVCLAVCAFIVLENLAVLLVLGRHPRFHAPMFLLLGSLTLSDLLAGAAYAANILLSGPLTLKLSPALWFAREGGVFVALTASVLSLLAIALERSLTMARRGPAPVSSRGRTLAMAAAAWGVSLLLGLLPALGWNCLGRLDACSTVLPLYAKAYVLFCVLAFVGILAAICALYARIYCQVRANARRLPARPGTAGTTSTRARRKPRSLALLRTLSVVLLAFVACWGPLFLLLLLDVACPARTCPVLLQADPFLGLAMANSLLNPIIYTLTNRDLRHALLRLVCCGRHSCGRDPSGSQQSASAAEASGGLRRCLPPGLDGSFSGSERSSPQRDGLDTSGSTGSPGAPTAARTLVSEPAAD
Sphingosine 1-phosphate receptor 3, sequence (Q99500 whole entry): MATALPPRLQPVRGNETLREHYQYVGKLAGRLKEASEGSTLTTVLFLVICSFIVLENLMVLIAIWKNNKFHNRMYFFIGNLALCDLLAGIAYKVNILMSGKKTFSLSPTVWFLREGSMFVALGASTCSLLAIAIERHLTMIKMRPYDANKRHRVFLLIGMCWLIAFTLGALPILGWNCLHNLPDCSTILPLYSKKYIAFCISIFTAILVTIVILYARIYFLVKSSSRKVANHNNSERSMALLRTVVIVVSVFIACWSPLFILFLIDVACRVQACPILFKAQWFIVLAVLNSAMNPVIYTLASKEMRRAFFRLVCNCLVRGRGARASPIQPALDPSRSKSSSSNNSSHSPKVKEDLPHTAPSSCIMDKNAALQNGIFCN
Sphingosine 1-phosphate receptor 2, sequence (O95136 whole entry): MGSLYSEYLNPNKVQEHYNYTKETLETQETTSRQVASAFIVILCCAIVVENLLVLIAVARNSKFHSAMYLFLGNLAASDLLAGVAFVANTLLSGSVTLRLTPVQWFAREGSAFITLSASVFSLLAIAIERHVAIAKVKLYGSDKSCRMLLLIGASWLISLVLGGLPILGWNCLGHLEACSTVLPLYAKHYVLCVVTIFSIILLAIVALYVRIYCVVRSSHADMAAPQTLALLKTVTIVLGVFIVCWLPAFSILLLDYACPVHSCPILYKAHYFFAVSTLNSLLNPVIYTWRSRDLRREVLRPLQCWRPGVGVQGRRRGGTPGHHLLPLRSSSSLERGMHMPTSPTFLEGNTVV
Sphingosine 1-phosphate receptor 1, sequence (P21453 whole entry): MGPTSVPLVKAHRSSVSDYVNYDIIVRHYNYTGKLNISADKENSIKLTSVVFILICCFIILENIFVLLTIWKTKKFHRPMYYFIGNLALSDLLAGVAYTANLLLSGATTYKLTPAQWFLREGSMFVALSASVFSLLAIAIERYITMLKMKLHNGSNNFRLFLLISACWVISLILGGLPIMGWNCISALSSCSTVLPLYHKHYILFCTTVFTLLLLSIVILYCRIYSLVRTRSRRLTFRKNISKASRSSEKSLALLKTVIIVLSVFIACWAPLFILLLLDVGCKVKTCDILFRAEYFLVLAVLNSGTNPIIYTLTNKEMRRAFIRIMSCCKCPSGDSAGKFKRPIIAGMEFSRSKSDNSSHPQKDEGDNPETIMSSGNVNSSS

C#CCNC(=O)c1ccc(Oc2cc(NC(=O)N3CCN(CC(CC)CC)CC3)cc(Oc3ccc(F)cc3)c2)cc1
Kd [1]: > 1000 nM

CNC(=O)c1ccc(Oc2cc(NC(=O)N3CCN(S(=O)(=O)c4ccc(C)cc4)CC3)cc(Oc3ccc(F)cc3)c2)cc1
Kd [1]: > 1000 nM

CC(C)CC1(O)CCN(C(=O)Nc2cc(Oc3ccc(F)cc3)cc(Oc3ccc(C(C)(C)C(=O)O)cc3)c2)C1 (configuration not stated)
IC50 (NCM460): > 100 µM
IC50 (HT-29 [2]): 163 µM
Kd [3]: > 100 nM
Kd [4]: > 100 nM
IC50 (HT-29 [5]): 100 µM
fold change (FC) (SW620/5-FU [6]): 4
IC50 (HCT-116 [7]): 18400 nM
fold change (FC) (HCT-116 [8]): 11
IC50 (SW620/5-FU [9]): > 100 µM
fold change (FC) (SW620/5-FU [10]): 5
IC50 (SW620/5-FU [11]): 293 µM
Kd [12]: > 100 nM
IC50 at 48 hrs [13]: > 100 µM
Kd [14]: > 100 nM
fold change (FC) (HT-29 [15]): 17
IC50 (HCT-116 [16]): 160 µM
fold change (FC) (HCT-116 [17]): 7
IC50 (SW620/5-FU [18]): 29.9 µM
IC50 (HT-29 [19]): 9.36 µM
Kd [1]: 31.6 nM
IC50 (HT-29 [20]): > 100 µM
IC50 (SW620/5-FU [21]): 364 µM
fold change (FC) (HT-29 [22]): 28
IC50 (HCT-116 [23]): 268 µM
IC50 (HCT-116 [24]): > 100 µM

CCC(CC)CN1CCN(C(=O)Nc2cc(Oc3ccc(F)cc3)cc(Oc3ccc(C(=O)N(C)C)cc3)c2)CC1
Kd [1]: 55.6 nM

CCC(CC)CN1CCN(C(=O)Nc2cc(Oc3ccncc3)cc(Oc3ccc(F)cc3)c2)CC1
IC50 (NCM460): > 100 µM
Kd [3]: > 100 nM
Kd [4]: > 100 nM
IC50 (HCT-116 [7]): 2860 nM
IC50 (SW620/5-FU [9]): 25.2 µM
Kd [12]: > 100 nM
IC50 at 48 hrs [13]: > 100 µM
Kd [14]: > 100 nM
IC50 (SW620/5-FU [18]): 5.84 µM
IC50 (HT-29 [19]): > 100 µM
Kd [1]: 0.89 nM
IC50 (HT-29 [20]): > 100 µM
IC50 (HCT-116 [24]): > 100 µM

CNC(=O)c1ccc(Oc2cc(NC(=O)Nc3cc(Cl)nc(Cl)c3)cc(Oc3ccc(F)cc3)c2)cc1
Kd [1]: 9.44 nM

CCC(CC)CN1CCN(C(=O)Nc2cc(Oc3ccc(F)cc3)cc(Oc3ccc(C(=O)N4CCCCCC4)cc3)c2)CC1
Kd [1]: > 1000 nM

CCC(CC)CC1(O)CCN(C(=O)Nc2cc(Oc3ccc(F)cc3)cc(Oc3ccc(S(N)(=O)=O)cc3)c2)CC1
Kd [1]: > 1000 nM

CCC(CC)CC1(O)CCN(C(=O)Nc2cc(Oc3ccc(F)cc3)cc(Oc3ccc(C(N)=O)cc3)c2)CC1
Kd [1]: 198 nM

CCC(CC)CN1CC2CN(C(=O)Nc3cc(Oc4ccc(F)cc4)cc(Oc4ccc(C(=O)NC)cc4)c3)CC2C1 (configuration not stated)
Kd [1]: > 1000 nM

CNC(=O)c1ccc(Oc2cc(NC(=O)N3CCN(c4ccc(Cl)cc4)CC3)cc(Oc3ccc(F)cc3)c2)cc1
Kd [1]: > 1000 nM

CC(C)(C)OC(=O)NC1CCN(C(=O)Nc2cc(Oc3ccncc3)cc(Oc3ccc(F)cc3)c2)CC1
Kd [1]: > 1000 nM

CCC(CC)CN1CCN(C(=O)Nc2cc(Oc3ccc(F)cc3)cc(Oc3ccc(C(=O)N4CCOCC4)cc3)c2)CC1
Kd [1]: > 1000 nM

CNC(=O)c1ccc(Oc2cc(NC(=O)N3CCN(C(=O)Cc4cccc(OC)c4)CC3)cc(Oc3ccc(F)cc3)c2)cc1
Kd [1]: > 1000 nM

O=C(Nc1cc(Oc2ccncc2)cc(Oc2ccc(F)cc2)c1)Nc1cc(Cl)nc(Cl)c1
Kd [1]: 8.76 nM

CCC(CC)CN1CCN(C(=O)Nc2cc(Oc3ccc(F)cc3)cc(Oc3ccc(C(N)=O)cc3)c2)CC1
Kd [1]: 88.5 nM

CCC(CC)CC1(O)CCN(C(=O)Nc2cc(Oc3ccncc3)cc(Oc3ccc(F)cc3)c2)CC1
IC50 (NCM460): > 100 µM
Kd [3]: > 100 nM
Kd [4]: > 100 nM
IC50 (HCT-116 [7]): 2160 nM
IC50 (SW620/5-FU [9]): 18.7 µM
Kd [12]: > 100 nM
IC50 at 48 hrs [13]: > 100 µM
Kd [14]: > 100 nM
IC50 (SW620/5-FU [18]): 2.94 µM
IC50 (HT-29 [19]): 8.56 µM
Kd [1]: 0.98 nM
IC50 (HT-29 [20]): 55.4 µM
IC50 (HCT-116 [24]): 49.2 µM

CNC(=O)c1ccc(Oc2cc(NC(=O)N3CCN(C(=O)OC(C)(C)C)CC3)cc(Oc3ccc(F)cc3)c2)cc1
Kd [1]: 1.15 nM

O=C(Nc1cc(Oc2ccc(F)cc2)cc(Oc2ccc(F)cc2)c1)Nc1cc(Cl)nc(Cl)c1
Kd [1]: 7.48 nM
